Reference: patent US9676757B2, “Heterocyclic compounds as NaV channel inhibitors and uses thereof” (Merck Patent GmbH, priority 2014, dated 2017)
Where two headings read alike, the source gives them in different places.

Target: Nav1.6 (Homo sapiens, UniProt Q9UQD0)
Experiment: Nav two-pulse protocol, IonWorks Quattro electrophysiology
Format: cell-based
Details: -120 mV to 0 mV, compound incubated 300 s
Description: Compound Plate Preparation
Supplied compounds were sent as Assay Ready Plates, with 2 μL per well of compound in DMSO at 300× the final assay concentrations as described above and in the project proposal. All assay plates are stored at in a −80° C. freezer.
On the day of the assay, 198 μL of external solution was added to the appropriate assay plate and mixed thoroughly. This provided a 1:100 dilution. A further 1:3 dilution occurred upon addition to the cells in the IonWorks, giving a 1:300 dilution in total.
On each assay plate, at least 8 wells were reserved for vehicle control (0.3% DMSO) and at least 8 wells for each positive control specific to the cell line tested. The positive controls were tested in an 8-point dose response with 3-fold dilutions to determine an IC50 value for each run. The positive control compounds are outlined below.
Ion Channel Positive Control & Concentrations
Nav1.6/1.2 Lidocaine: 8, 3-fold dilutions starting at 100 μM
Electrophysiological Recording Solutions
The solutions for recording currents were are follows:
Amphotericin B was used to obtain electrical access to the cell interior at a final concentration of 200 μg/ml in internal recording solution.
Experimental Protocols & Data Analysis
Nav currents were evoked by stepping from a holding potential of −120 mV to 0 mV for 2.5 s (pulse 1), followed by a 5 ms inter-pulse interval, and stepping from a holding potential of −120 mV to 0 mV for 20 ms (pulse 2). The voltage protocol was applied (Pre), compounds added, incubated for 300 seconds, and the voltage protocol was applied a final time (Post) on the IonWorks Quattro.
The parameters measured were the maximum inward current evoked on stepping to 0 mV from the 1st and 2nd pulse. All data were filtered for seal quality, seal drop, and current amplitude. The peak current amplitude (Peak) was calculated before (Pre) and after (Post) compound addition to the amount of block was assessed by dividing the Post-compound current amplitude by the Pre-compound current amplitude. These procedures were implemented for the 1st and 2nd pulse.

Sequence of Nav1.6 (Q9UQD0 whole entry): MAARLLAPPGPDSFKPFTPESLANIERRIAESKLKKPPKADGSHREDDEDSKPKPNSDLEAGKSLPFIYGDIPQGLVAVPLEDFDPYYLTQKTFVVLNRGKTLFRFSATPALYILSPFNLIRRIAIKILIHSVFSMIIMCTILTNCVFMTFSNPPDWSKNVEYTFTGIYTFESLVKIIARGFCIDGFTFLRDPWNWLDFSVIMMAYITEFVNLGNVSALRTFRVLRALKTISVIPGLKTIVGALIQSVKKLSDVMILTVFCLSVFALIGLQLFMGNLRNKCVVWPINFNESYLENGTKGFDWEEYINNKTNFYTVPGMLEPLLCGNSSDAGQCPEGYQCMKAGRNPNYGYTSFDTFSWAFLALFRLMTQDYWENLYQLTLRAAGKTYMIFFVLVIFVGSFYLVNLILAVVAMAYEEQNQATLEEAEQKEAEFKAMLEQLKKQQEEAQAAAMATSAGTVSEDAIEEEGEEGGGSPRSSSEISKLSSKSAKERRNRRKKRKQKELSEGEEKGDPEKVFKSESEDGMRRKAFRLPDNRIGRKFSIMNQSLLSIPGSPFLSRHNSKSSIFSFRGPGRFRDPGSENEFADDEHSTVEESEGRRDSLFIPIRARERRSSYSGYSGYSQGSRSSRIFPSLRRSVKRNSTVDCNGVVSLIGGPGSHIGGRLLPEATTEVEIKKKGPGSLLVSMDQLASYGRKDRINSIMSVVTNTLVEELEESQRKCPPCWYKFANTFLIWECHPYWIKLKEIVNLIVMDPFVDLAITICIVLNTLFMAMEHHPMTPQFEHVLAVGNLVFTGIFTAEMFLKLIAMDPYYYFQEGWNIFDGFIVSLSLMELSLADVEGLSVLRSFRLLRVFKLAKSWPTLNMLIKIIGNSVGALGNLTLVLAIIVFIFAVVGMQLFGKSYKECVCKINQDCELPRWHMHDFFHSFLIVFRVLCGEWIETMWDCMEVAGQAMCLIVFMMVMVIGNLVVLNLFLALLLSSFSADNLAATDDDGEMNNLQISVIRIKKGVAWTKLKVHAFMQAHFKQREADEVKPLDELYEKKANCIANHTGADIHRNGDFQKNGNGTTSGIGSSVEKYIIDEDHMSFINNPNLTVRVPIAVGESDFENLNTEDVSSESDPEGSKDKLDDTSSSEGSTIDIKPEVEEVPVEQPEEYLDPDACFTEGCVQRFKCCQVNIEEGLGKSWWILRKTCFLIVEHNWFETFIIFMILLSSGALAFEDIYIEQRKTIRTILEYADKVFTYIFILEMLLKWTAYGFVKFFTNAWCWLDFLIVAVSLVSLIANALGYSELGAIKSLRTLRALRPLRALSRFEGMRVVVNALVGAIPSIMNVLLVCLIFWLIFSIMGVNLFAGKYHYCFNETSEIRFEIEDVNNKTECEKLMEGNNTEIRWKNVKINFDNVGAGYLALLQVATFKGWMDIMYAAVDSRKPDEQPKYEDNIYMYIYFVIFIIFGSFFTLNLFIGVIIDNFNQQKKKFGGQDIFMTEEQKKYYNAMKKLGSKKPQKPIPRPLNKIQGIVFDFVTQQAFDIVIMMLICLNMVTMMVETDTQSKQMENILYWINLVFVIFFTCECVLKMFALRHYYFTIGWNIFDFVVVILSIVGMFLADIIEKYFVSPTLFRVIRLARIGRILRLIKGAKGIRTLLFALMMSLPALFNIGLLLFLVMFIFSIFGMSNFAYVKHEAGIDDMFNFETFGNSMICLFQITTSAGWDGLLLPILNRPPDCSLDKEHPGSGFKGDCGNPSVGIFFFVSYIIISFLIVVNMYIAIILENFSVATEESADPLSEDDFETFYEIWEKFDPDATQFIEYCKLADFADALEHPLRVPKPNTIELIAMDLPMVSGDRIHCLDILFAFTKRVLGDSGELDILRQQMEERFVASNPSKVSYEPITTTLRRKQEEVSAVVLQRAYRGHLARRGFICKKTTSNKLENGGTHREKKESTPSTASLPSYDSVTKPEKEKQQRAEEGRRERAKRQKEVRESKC

O=C(NCc1ccc(F)cc1)C1CCN(Cc2cccc(Oc3ccccc3)c2)C1 (stereo not shown) [Compound 75, 1-(3-Phenoxy-benzyl)-pyrrolidine-3-carboxylic acid 4-fluoro-benzylamide]
IC50 (read-out: Nav1.6 Tonic): 10 to 20 µM | IC50 (read-out: Nav1.6 inac): 1 to 5 µM

COc1cccc(Oc2cccc(CN3CCC(C(=O)NCc4ccccn4)C3)c2)c1 (stereo not shown) [Compound 2, 1-[3-(3-Methoxy-phenoxy)-benzyl]-pyrrolidine-3-carboxylic acid (pyridin-2-ylmethyl)-amide]
IC50 (read-out: Nav1.6 Tonic): > 20 µM | IC50 (read-out: Nav1.6 inac): 1 to 5 µM

CC(C)COc1cccc(CN2CCC(c3noc(Cc4ccccn4)n3)C2)c1 (stereo not shown) [Compound 57, 2-{3-[1-(3-Isobutoxy-benzyl)-pyrrolidin-3-yl]-[1,2,4]oxadiazol-5-ylmethyl}-pyridine]
IC50 (read-out: Nav1.6 Tonic): > 20 µM | IC50 (read-out: Nav1.6 inac): 1 to 5 µM

O=C(NCc1ccc(F)cc1F)C1CCN(Cc2cccc(Oc3ccccc3)c2)C1 (stereo not shown) [Compound 78, 1-(3-Phenoxy-benzyl)-pyrrolidine-3-carboxylic acid 2,4-difluoro-benzylamide]
IC50 (read-out: Nav1.6 Tonic): 10 to 20 µM | IC50 (read-out: Nav1.6 inac): 1 to 5 µM

Cc1ccc(Oc2cccc(CN3CCC(C(=O)NCc4ccccn4)C3)c2)cc1C (stereo not shown) [Compound 10, 1-[3-(3,4-Dimethyl-phenoxy)-benzyl]-pyrrolidine-3-carboxylic acid (pyridin-2-ylmethyl)-amide]
IC50 (read-out: Nav1.6 Tonic): 10 to 20 µM | IC50 (read-out: Nav1.6 inac): 1 to 5 µM

O=C(NCc1cc(F)ccc1F)C1CCN(Cc2cccc(Oc3ccccc3)c2)C1 (stereo not shown) [Compound 77, 1-(3-Phenoxy-benzyl)-pyrrolidine-3-carboxylic acid 2,5-difluoro-benzylamide]
IC50 (read-out: Nav1.6 Tonic): 10 to 20 µM | IC50 (read-out: Nav1.6 inac): < 1 µM

CC1(C(=O)NCc2ccccn2)CCN(Cc2coc(-c3ccccc3)n2)C1 (stereo not shown) [Compound 99, 3-Methyl-1-(2-phenyl-oxazol-4-ylmethyl)-pyrrolidine-3-carboxylic acid (pyridin-2-ylmethyl)-amide]
IC50 (read-out: Nav1.6 Tonic): > 20 µM | IC50 (read-out: Nav1.6 inac): 1 to 5 µM

Cc1ccc(Oc2cccc(CN3CCC(F)(C(=O)NCc4ccccn4)C3)c2)cc1 (stereo not shown) [Compound 22, 3-Fluoro-1-(3-p-tolyloxy-benzyl)-pyrrolidine-3-carboxylic acid (pyridin-2-ylmethyl)-amide]
IC50 (read-out: Nav1.6 Tonic): > 20 µM | IC50 (read-out: Nav1.6 inac): 1 to 5 µM

CC1(C(=O)NCc2ccccn2)CCN(Cc2cccc(Oc3ncccn3)c2)C1 (stereo not shown) [Compound 27, 3-Methyl-1-[3-(pyrimidin-2-yloxy)-benzyl]-pyrolidine-3-carboxylic acid (pyridin-2-ylmethyl)-amide]
IC50 (read-out: Nav1.6 Tonic): > 20 µM | IC50 (read-out: Nav1.6 inac): > 5 µM

CCC(NC(=O)C1(C)CCN(Cc2cccc(Oc3ccccc3)c2)C1)c1cccnc1 (stereo not shown) [Compound 103, 3-Methyl-1-(3-phenoxy-benzyl)-pyrrolidine-3-carboxylic acid (1-pyridin-3-yl-propyl)-amide]
IC50 (read-out: Nav1.6 Tonic): > 20 µM | IC50 (read-out: Nav1.6 inac): > 5 µM

Cc1cccc(-c2cn(C3CCN(Cc4cccc(OCC(C)C)c4)C3)nn2)n1 (stereo not shown) [Compound 61, 2-{1-[1-(3-Isobutoxy-benzyl)-pyrrolidin-3-yl]-1H-[1,2,3]triazol-4-yl}-6-methyl-pyridine]
IC50 (read-out: Nav1.6 Tonic): > 20 µM | IC50 (read-out: Nav1.6 inac): > 5 µM

O=C(NCc1ccccn1)C1CCN(Cc2cccc(Oc3cccnc3)c2)C1 (stereo not shown) [Compound 12, 1-[3-(Pyridin-3-yloxy)-benzyl]-pyrrolidine-3-carboxylic acid (pyridin-2-ylmethyl)-amide]
IC50 (read-out: Nav1.6 Tonic): > 20 µM | IC50 (read-out: Nav1.6 inac): 1 to 5 µM

O=C(NCc1ccc(OC(F)F)cc1)C1CCN(Cc2cccc(Oc3ccccc3)c2)C1 (stereo not shown) [Compound 96, 1-(3-Phenoxy-benzyl)-pyrrolidine-3-carboxylic acid 4-difluoromethoxy-benzylamide]
IC50 (read-out: Nav1.6 Tonic): > 20 µM | IC50 (read-out: Nav1.6 inac): > 5 µM

CC1(C(=O)NCc2ccccn2)CCN(Cc2cnc(-c3ccccc3)s2)C1 (stereo not shown) [Compound 102, 3-Methyl-1-(2-phenyl-thiazol-5-ylmethyl)-pyrrolidine-3-carboxylic acid (pyridin-2-ylmethyl)-amide]
IC50 (read-out: Nav1.6 Tonic): > 20 µM | IC50 (read-out: Nav1.6 inac): 1 to 5 µM

Cc1ccc(CNC(=O)C2CCN(Cc3cccc(Oc4ccccc4)c3)C2)o1 (stereo not shown) [Compound 91, 1-(3-Phenoxy-benzyl)-pyrrolidine-3-carboxylic acid (5-methyl-furan-2-ylmethyl)-amide]
IC50 (read-out: Nav1.6 Tonic): > 20 µM | IC50 (read-out: Nav1.6 inac): > 5 µM

O=C(NCc1ccccn1)C1(Cl)CCN(Cc2cccc(Oc3ccccc3)c2)C1=O (stereo not shown) [Compound 95, 3-Chloro-2-oxo-1-(3-phenoxy-benzyl)-pyrrolidine-3-carboxylic acid (pyridin-2-ylmethyl)-amide]
IC50 (read-out: Nav1.6 Tonic): > 20 µM | IC50 (read-out: Nav1.6 inac): > 5 µM

O=C(NCc1cccc(Cl)c1)C1CCN(Cc2cccc(Oc3ccccc3)c2)C1 (stereo not shown) [Compound 69, 1-(3-Phenoxy-benzyl)-pyrrolidine-3-carboxylic acid 3-chloro-benzylamide]
IC50 (read-out: Nav1.6 Tonic): > 20 µM | IC50 (read-out: Nav1.6 inac): < 1 µM

O=C(NCc1cccs1)C1CCN(Cc2cccc(Oc3ccccc3)c2)C1 (stereo not shown) [Compound 88, 1-(3-Phenoxy-benzyl)-pyrrolidine-3-carboxylic acid (thiophen-2-ylmethyl)-amide]
IC50 (read-out: Nav1.6 Tonic): > 20 µM | IC50 (read-out: Nav1.6 inac): < 1 µM

CC(C)COc1cccc(CN2CCC(c3noc(-c4ccccn4)n3)C2)c1 (stereo not shown) [Compound 48, 2-{3-[1-(3-Isobutoxy-benzyl)-pyrrolidin-3-yl]-[1,2,4]oxadiazol-5-yl}-pyridine]
IC50 (read-out: Nav1.6 Tonic): > 20 µM | IC50 (read-out: Nav1.6 inac): 1 to 5 µM

Cc1cccc(Oc2cccc(CN3CCC(C(=O)NCc4ccccn4)C3)c2)c1 (stereo not shown) [Compound 43, 1-(3-m-Tolyloxy-benzyl)-pyrrolidine-3-carboxylic acid (pyridin-2-ylmethyl)-amide]
IC50 (read-out: Nav1.6 Tonic): > 20 µM | IC50 (read-out: Nav1.6 inac): > 5 µM

O=C(NCc1ccccn1)C1(O)CCN(Cc2cccc(Oc3ccccc3)c2)C1 (stereo not shown) [Compound 93, 3-hydroxy-1-(phenyloxy-benzyl)-pyrrolidine-3-carboxylic acid (pyridin-2-ylmethyl)-amide]
IC50 (read-out: Nav1.6 Tonic): > 20 µM | IC50 (read-out: Nav1.6 inac): 1 to 5 µM

CC(C)c1ccc(Oc2cccc(CN3CCC(F)(C(=O)NCc4ccccn4)C3)c2)cc1 (stereo not shown) [Compound 26, 3-Fluoro-1-[3-(4-isopropyl-phenoxy)-benzyl]-pyrrolidine-3-carboxylic acid (pyridin-2-ylmethyl)-amide]
IC50 (read-out: Nav1.6 Tonic): > 20 µM | IC50 (read-out: Nav1.6 inac): 1 to 5 µM

O=C(NCc1ccccn1)C1CCN(Cc2cccc(Oc3ncccn3)c2)C1 (stereo not shown) [Compound 44, 1-[3-(Pyrimidin-2-yloxy)-benzyl]-pyrrolidine-3-carboxylic acid (pyridin-2-ylmethyl)-amide]
IC50 (read-out: Nav1.6 Tonic): > 20 µM | IC50 (read-out: Nav1.6 inac): > 5 µM

O=C(NCc1ncccc1F)C1CCN(Cc2cccc(OCC(F)(F)F)c2)C1 (stereo not shown) [Compound 98, 1-[3-(2,2,2-Trifluoro-ethoxy)-benzyl]-pyrrolidine-3-carboxylic acid (3-fluoro-pyridin-2-ylmethyl)-amide]
IC50 (read-out: Nav1.6 Tonic): > 20 µM | IC50 (read-out: Nav1.6 inac): > 5 µM

O=C(NCC1CCCO1)C1CCN(Cc2cccc(Oc3ccccc3)c2)C1 (stereo not shown) [Compound 87, 1-(3-Phenoxy-benzyl)-pyrrolidine-3-carboxylic acid (tetrahydro-furan-2-ylmethyl)-amide]
IC50 (read-out: Nav1.6 Tonic): < 10 µM | IC50 (read-out: Nav1.6 inac): < 1 µM

CCNC(=O)C1CN(Cc2cccc(Oc3ccccc3)c2)CCO1 (stereo not shown) [Compound 100, 4-(3-Phenoxy-benzyl)-morpholine-2-carboxylic acid ethylamide]
IC50 (read-out: Nav1.6 Tonic): 10 to 20 µM | IC50 (read-out: Nav1.6 inac): 1 to 5 µM

CC(C)COc1cccc(CN2CCC(Cn3ccnc3)C2)c1 (stereo not shown) [Compound 28, 1-[1-(3-Isobutoxy-benzyl)-pyrrolidin-3-ylmethyl]-1H-imidazole]
IC50 (read-out: Nav1.6 Tonic): > 20 µM | IC50 (read-out: Nav1.6 inac): < 1 µM

CC(C)COc1cccc(CN2CCC(n3cc(-c4cccc(Br)n4)nn3)C2)c1 (stereo not shown) [Compound 63, 2-Bromo-6-{1-[1-(3-isobutoxy-benzyl)-pyrrolidin-3-yl]-1H-[1,2,3]triazol-4-yl}-pyridine]
IC50 (read-out: Nav1.6 Tonic): > 20 µM | IC50 (read-out: Nav1.6 inac): > 5 µM

CC(C)OCc1cccc(CN2CCC(CNC(=O)c3ccccn3)C2)c1 (stereo not shown) [Compound 36, Pyridine-2-carboxylic acid [1-(3-isopropoxymethyl-benzyl)-pyrrolidin-3-ylmethyl]-amide]
IC50 (read-out: Nav1.6 Tonic): > 20 µM | IC50 (read-out: Nav1.6 inac): < 1 µM

Cc1cccnc1CNC(=O)C1CCN(Cc2cccc(OCC(F)(F)F)c2)C1 (stereo not shown) [Compound 90, 1-[3-(2,2,2-Trifluoro-ethoxy)-benzyl]-pyrrolidine-3-carboxylic acid (3-methyl-pyridin-2-ylmethyl)-amide]
IC50 (read-out: Nav1.6 Tonic): > 20 µM | IC50 (read-out: Nav1.6 inac): 1 to 5 µM

O=C(NCc1ccc(C(F)(F)F)cc1)C1CCN(Cc2cccc(Oc3ccccc3)c2)C1 (stereo not shown) [Compound 71, 1-(3-Phenoxy-benzyl)-pyrrolidine-3-carboxylic acid 4-trifluoromethyl-benzylamide]
IC50 (read-out: Nav1.6 Tonic): 10 to 20 µM | IC50 (read-out: Nav1.6 inac): 1 to 5 µM

COc1ccccc1Oc1cccc(CN2CCC(C(=O)NCc3ccccn3)C2)c1 (stereo not shown) [Compound 7, 1-[3-(2-Methoxy-phenoxy)-benzyl]-pyrrolidine-3-carboxylic acid (pyridin-2-ylmethyl)-amide]
IC50 (read-out: Nav1.6 Tonic): > 20 µM | IC50 (read-out: Nav1.6 inac): < 1 µM
